Biological target: T1, Flag/GST-tagged recombinant human B-Raf (Homo sapiens, UniProt P15056)
T1 construct: Flag; GST; made in house; host or cells: Sf9 insect cells (B-Raf); E. coli (Mek-1-GST)
Assay: B-Raf Kinase to MEK1 ELISA
Format: biochemical
Details: phosphorylation of GST-MEK1 (50 nM final), phospho-MEK1 antibody/Europium readout; 60 minutes at RT
Text: • TITLE: B-Raf Kinase to MEK1 ELISA • PURPOSE: To discover B-Raf Kinase inhibitors that can inhibit growth of tumor cells which contain oncogenic forms of Receptor Tyrosine Kinases or K-Ras, or B-Raf kinase.
Reagents: Flag/GST-tagged recombinant human B-Raf produced in Sf9 insect cells, human non-active Mek-1-GST (recombinant protein produced in E. coli); and a phospho-MEK1 specific poly-clonal Ab from Cell Signaling Technology (cat. #9121).
B-Raf-1 is used to phosphorylate GST-MEK1. MEK1 phosphorylation is measured by a phospho-specific antibody (from Cell Signaling Technology, cat. #9121) that detects phosphorylation of two serine residues at positions 217 and 221 on MEK1.
1. Assay Dilution Buffer (ADB): 20 mM MOPS, pH 7.2, 25 mM β-glycerol phosphate, 5 mM EGTA, 1 mM sodium orthovanadate, 1 mM dithiothreitol.
2. Magnesium/ATP Cocktail: 200 μM cold ATP and 40 mM magnesium chloride in ADB.
4. Active Kinase: Active B-Raf: used at ˜20 ng per assay point.
5. Non-active GST-MEK1: Use at 100 nM (50 nM final).
7. Anti-GST Ab (Pharmacia)
8. Anti-rabbit Ab/Europium conjugate (Wallac)
1. Add 25 μl of ADB containing B-Raf and Mek per assay (i.e. per well of a 96 well plate)
2. Add 25 μl of 0.2 mM ATP and 40 mM magnesium chloride in ADB.
3. Incubate for 60 minutes at RT in a shaking incubator.
4. Transfer this mixture to an anti-GST Ab coated 96 well plate (Nunc Immunosorb plates coated o/n with a-GST.
5. Incubate for 60 minutes at 30° C. in a shaking incubator
6. Wash 3× with TBST, add Anti-Phospho MEK1 (1:1000)
7. Incubate for 60 minutes at 30° C. in a shaking incubator
8. Wash 3× with TBST, add Anti-rabbit Ab/Europium conjugate (Wallac) (1:500)
9. Incubate for 60 minutes at 30° C. in a shaking incubator
10. Add 100 ul of Wallac Delfia Enhancement Solution and shake for 10 minutes.
11. Read plates in Wallac Victor model Plate Reader.
12. Collect data analyze in Excel for single point and IC50 determinations.
• Single point assay—% inhibition at […] (% Inhibition=1−cpd.treated sample/untreated control) • IC50 determinations—done on cpds from single pt assays with >80% inhibition. Typically Raf-1 assay is run at cpd concentrations from 10 μM to 30 nM in half log dilutions. (% inhibition is determined for each cpd concentration) • Data handling—Data is analyzed in Excel, and will transferred to Radis.

T1 sequence (P15056 whole entry): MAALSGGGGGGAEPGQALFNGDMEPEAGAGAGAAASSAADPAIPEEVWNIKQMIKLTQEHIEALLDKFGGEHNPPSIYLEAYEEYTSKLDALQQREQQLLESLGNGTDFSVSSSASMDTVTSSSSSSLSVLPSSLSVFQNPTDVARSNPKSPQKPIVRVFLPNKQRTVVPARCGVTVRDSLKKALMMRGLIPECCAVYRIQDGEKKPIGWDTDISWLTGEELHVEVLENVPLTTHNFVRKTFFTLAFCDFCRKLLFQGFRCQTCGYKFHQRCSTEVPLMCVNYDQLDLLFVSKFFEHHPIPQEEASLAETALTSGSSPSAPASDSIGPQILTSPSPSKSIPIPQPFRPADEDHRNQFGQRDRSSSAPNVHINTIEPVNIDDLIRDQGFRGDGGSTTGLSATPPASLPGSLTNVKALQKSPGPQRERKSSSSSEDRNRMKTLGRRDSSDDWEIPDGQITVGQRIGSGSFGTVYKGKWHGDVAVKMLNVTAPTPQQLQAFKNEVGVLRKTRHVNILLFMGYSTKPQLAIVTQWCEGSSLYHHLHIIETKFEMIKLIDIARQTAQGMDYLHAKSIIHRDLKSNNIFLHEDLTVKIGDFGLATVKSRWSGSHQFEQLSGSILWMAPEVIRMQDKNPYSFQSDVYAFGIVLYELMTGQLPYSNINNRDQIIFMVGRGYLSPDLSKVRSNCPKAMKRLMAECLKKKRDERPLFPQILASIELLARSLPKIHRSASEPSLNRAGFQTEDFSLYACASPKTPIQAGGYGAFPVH

Row | SMILES | IC50 [µM]
1 | NCCC(=O)N1CC=C(c2cccc(NC(=O)c3cccc(C(F)(F)F)c3)c2)n2nccc21 [Example 18, N-[3-(4-β-Alanyl-4,5-dihydropyrazolo[1,5-a]pyrimidin-7-yl)phenyl]-3-(trifluoromethyl)benzamide] | > 10
2 | CC#CCN1CC=C(c2cccc(NC(=O)c3cccc(C(F)(F)F)c3)c2)n2nccc21 [Example 7, N-[3-(4-But-2-yn-1-yl-4,5-dihydropyrazolo[1,5-a]pyrimidin-7-yl)phenyl]-3-(trifluoromethyl)benzamide] | 0.868
3 | CC(C)NC(=O)N1CC=C(c2cccc(NC(=O)c3cccc(C(F)(F)F)c3)c2)n2nccc21 [Example 5, N-isopropyl-7-(3-{[3-(trifluoromethyl)benzoyl]amino}phenyl)pyrazolo[1,5-a]pyrimidine-4(5H)-carboxamide] | 1.62
4 | CS(=O)(=O)N1CC=C(c2cccc(NC(=O)c3cccc(C(F)(F)F)c3)c2)n2nccc21 [Example 2, N-{3-[4-(Methylsulfonyl)-4,5-dihydropyrazolo[1,5-a]pyrimidin-7-yl]phenyl}-3-(trifluoromethyl)benzamide] | 0.683
5 | CC(C)(C)OC(=O)NCC(=O)N1CC=C(c2cccc(NC(=O)c3cccc(C(F)(F)F)c3)c2)n2nccc21 [Example 14, tert-Butyl {2-oxo-2-[7-(3-{[3-(trifluoromethyl)benzoyl]amino}phenyl)pyrazolo[1,5-a]pyrimidin-4(5H)-yl]ethyl}carbamate] | > 10
6 | O=C(Nc1cccc(C2=CCNc3ccnn32)c1)c1cccc(C(F)(F)F)c1 [Example 1, N-[3-(4,5-dihydropyrazolo[1,5-a]pyrimidin-7-yl)phenyl]-3-(trifluoromethyl)benzamide] | > 10
7 | NCC(=O)N1CC=C(c2cccc(NC(=O)c3cccc(C(F)(F)F)c3)c2)n2nccc21 [Example 15, N-[3-(4-Glycyl-4,5-dihydropyrazolo[1,5-a]pyrimidin-7-yl)phenyl]-3-(trifluoromethyl)benzamide] | > 10
8 | CC(=O)NCCC(=O)N1CC=C(c2cccc(NC(=O)c3cccc(C(F)(F)F)c3)c2)n2nccc21 [Example 19, N-{3-[4-(N-Acetyl-β-alanyl)-4,5-dihydropyrazolo[1,5-a]pyrimidin-7-yl]phenyl}-3-(trifluoromethyl)benzamide] | 0.716
9 | CC(=O)N1CC=C(c2cccc(NC(=O)c3cccc(C(F)(F)F)c3)c2)n2nccc21 [Example 10, N-[3-(4-Acetyl-4,5-dihydropyrazolo[1,5-a]pyrimidin-7-yl)phenyl]-3-(trifluoromethyl)benzamide] | 3.77
10 | CC(C)(C)OC(=O)N1CC=C(c2cccc(NC(=O)c3cccc(C(F)(F)F)c3)c2)n2nccc21 [Example 6, tert-Butyl 7-(3-{[3-(trifluoromethyl)benzoyl]amino}phenyl)pyrazolo[1,5-a]pyrimidine-4(5H)-carboxylate] | 0.815
11 | CCNC(=O)N1CC=C(c2cccc(NC(=O)c3cccc(C(F)(F)F)c3)c2)n2nccc21 [Example 9, N-Ethyl-7-(3-{[3-(trifluoromethyl)benzoyl]amino}phenyl)pyrazolo[1,5-a]pyrimidine-4(5H)-carboxamide] | > 10
12 | CC(C)(C)OC(=O)N1CC=C(c2cccc(N(C(=O)OC(C)(C)C)C(=O)c3cccc(C(F)(F)F)c3)c2)n2nccc21 [Example 12, tert-Butyl 7-(3-{(tert-butoxycarbonyl)[3-(trifluoromethyl)benzoyl]amino}phenyl)pyrazolo[1,5-a]pyrimidine-4(5H)-carboxylate 4(5H)-carboxylate] | > 10
13 | CC(=O)NCC(=O)N1CC=C(c2cccc(NC(=O)c3cccc(C(F)(F)F)c3)c2)n2nccc21 [Example 16, N-{3-[4-(N-Acetylglycyl)-4,5-dihydropyrazolo[1,5-a]pyrimidin-7-yl]phenyl}-3-(trifluoromethyl)benzamide] | 1.77

Now those with a lower IC50, led by results:

Row | IC50 [µM] | SMILES
14 | 0.572 | CCOC(=O)c1cnn2c1N(C(C)=O)CC=C2c1cccc(NC(=O)c2cccc(C(F)(F)F)c2)c1 [Example 11, Ethyl 4-acetyl-7-(3-{[3-(trifluoromethyl)benzoyl]amino}phenyl)-4,5-dihydropyrazolo[1,5-a]pyrimidine-3-carboxylate]
15 | 0.385 | CC(C)(C)OC(=O)NCCC(=O)N1CC=C(c2cccc(NC(=O)c3cccc(C(F)(F)F)c3)c2)n2nccc21 [Example 17, tert-Butyl {3-oxo-3-[7-(3-{[3-(trifluoromethyl)benzoyl]amino}phenyl)pyrazolo[1,5-a]pyrimidin-4(5H)-yl]propyl}carbamate]
16 | 0.37 | CCOC(=O)N1CC=C(c2cccc(NC(=O)c3cccc(C(F)(F)F)c3)c2)n2nccc21 [Example 4, Ethyl 7-(3-{[3-(trifluoromethyl)benzoyl]amino}phenyl)pyrazolo[1,5-a]pyrimidine-4(5H)-carboxylate]
17 | 0.278 | CCOC(=O)c1cnn2c1NCC=C2c1cccc(NC(=O)c2cccc(C(F)(F)F)c2)c1 [Example 8, Ethyl 7-(3-{[3-(trifluoromethyl)benzoyl]amino}phenyl)-4,5-dihydropyrazolo[1,5-a]pyrimidine-3-carboxylate]
18 | 0.163 | COC(=O)N1CC=C(c2cccc(NC(=O)c3cccc(C(F)(F)F)c3)c2)n2nccc21 [Example 3, Methyl 7-(3-{[3-(trifluoromethyl)benzoyl]amino}phenyl)pyrazolo[1,5-a]pyrimidine-4(5H)-carboxylate]
19 | 0.161 | O=C(Nc1ccc(Cl)c(C2=CCNc3ccnn32)c1)c1cccc(C(F)(F)F)c1 [Example 20, N-[4-Chloro-3-(4,5-dihydropyrazolo[1,5-a]pyrimidin-7-yl)phenyl]-3-(trifluoromethyl)benzamide]
20 | 0.126 | CCOC(=O)c1cnn2c1N(C(=O)OC)CC=C2c1cccc(NC(=O)c2cccc(C(F)(F)F)c2)c1 [Example 13, 3-Ethyl 4-methyl 7-(3-{[3-(trifluoromethyl)benzoyl]amino}phenyl)pyrazolo[1,5-a]pyrimidine-3,4(5H)-dicarboxylate]
